How the values were obtained:
[1] = system: Ramos B lymphoma cells; assay: Dox cytotoxicity by trypan blue exclusion in Ramos cells; format: cell-based; conditions: 24 hr
Protocol: In the present study, the sensitizing activity of W-188 and W-143 was tested in the Raji and Ramos cell lines. Since these two human B lymphoma lines naturally express high levels of anti-apoptotic Bcl-2 proteins, they may be more clinically relevant than the transfected HL-60-Bcl-2 line.
The sensitizing effects of W-143 and W-188 were first tested on these lines in vitro. […] Ramos cells were cultured with different concentrations of Dox with and without W-143 or W-188 at 20 μg/ml for 24 hr, and then viability assessed microscopically by counting at least 100 cells.

[2] = system: HL-60-Bcl-2 xenograft; assay: HL-60-Bcl-2 xenograft growth in nude mice; format: in vivo; conditions: single dose
Protocol: Groups of five nude mice were injected s.c. with 5×10^6 HL-60-Bcl-2 cells, and tumors allowed to grow to a size of 7-10 mm. Tumors were then exposed to a single dose of γ-radiation, a single dose of W-188 or vehicle control, or a single dose of both γ-radiation and W-188. Tumor growth was monitored every other day, and when the tumor volume increased four fold, the animals were sacrificed.

[3] = system: AP24; assay: Etoposide-induced activation of AP24 (AAPVase) in HL-60 and PW leukemia lines; format: cell-based, human; conditions: for AP24 Activity (AAPVase, nmol/mg/hr): etoposide 50 μM + W-188 5 μg/ml, 3 h
[4] = system: LY-ar cells; assay: Radiation-induced DNA fragmentation in LY-ar cells; format: cell-based, murine; conditions: γ-radiation in the presence of W-188; FIG. 10
Protocol: Additional studies were performed to determine if W-188 could also sensitize cells that naturally express high levels of Bcl-2. Clones were isolated from the murine B cell lymphoma, LY, that naturally express low levels of Bcl-2 (LY-as) or high levels (LY-ar), as described previously (Mirkovic, N., et al., Oncogene, 1997, 15:1461).
(§1) LY-ar was highly resistant to apoptosis induced by y-radiation. […] The apparent selective effects of W-188 may be due to the preferential intracellular accumulation of porphyrin compounds in transformed cells as opposed to normal cells reported previously (Bugelski, P. J., et al., Cancer Res., 1981, 41:4606).

[5] = system: HS-treated U937 cells; assay: DNA fragmentation in heat shock-treated U937 cells; format: cell-based
Protocol: U937 cells received either no heat shock (HS) treatment or HS treatment at 42° C. for 30 min followed by recovery for 3 hr. The cells were then treated with etoposide or TNF with and without W-188, which alone was nontoxic. After 3 hr, DNA fragmentation was measured by release of ^3H-labeled DNA. As expected, U937 cells exposed to HS treatment were completely resistant to etoposide or TNF-induced DNA fragmentation (FIG. 7).

[6] = system: LY-ar cells; assay: 10 day colony formation assay, LY-ar; format: cell-based, murine; conditions: not shown
Description: as §1

[7] = system: Bcl-2; assay: Expression of Bcl-2 protein in HL-60-Bcl-2 cells; format: cell-based, human; conditions: W-188 + etoposide / chemotherapeutic drugs, in vitro
[8] = system: RIF-1 fibrosarcoma; assay: RIF-1 fibrosarcoma tumor growth in vivo; parameters: species or system mice; conditions: for Effect on tumor growth: five i.p. injections
Description: The present study tested in the ability of W-188 to synergize with Dox and inhibit tumor growth in vivo. The RIF-1 fibrosarcoma model was used because this model has been well-characterized, and naturally expresses high Bcl-2 levels and has a consistent growth pattern (Nahabedian, M. Y., et al., J. Natl. Can. Inst., 1988, 80:739; Chang, M-J., et al., Cancer Res., 1994, 54:5380; Srivastana, M., et al., J. Biol. Chem., 2001, 276:15481).
Groups of five mice each were inoculated s.c. with RIF-1 cells. The tumors were allowed to grow for 12 days to a size of 0.5 cm diameter, which was designated day 0. The mice were then given five i.p. injections every other day with vehicle, Dox 2.5 mg/kg, Dox 5.0 mg/kg, W-188 100 mg/kg, and Dox 5.0 mg/kg+W-188 100 mg/kg. The mice were weighed and the tumor size measured every day.
The protocol was similar to that described for the W-188 experiment in Example 8, except that in this study, mice with established tumors received only three injections of W-143 or Dox every other day starting on day 0.

[9] = system: bFGF-treated U937 cells; assay: DNA fragmentation in bFGF-treated U937 cells; format: cell-based; conditions: 1 ng/ml bFGF 20 h pretreatment; FIG. 9
Protocol: Another means by which cells may evade apoptosis is by treatment with various growth factors. To assess the ability of W-188 to reverse the apoptosis resistance induced by growth factors, U937 cells were treated ±1 ng/ml basic fibroblast growth factor (bFGF) for 20 h, then exposed to etoposide or TNF and DNA fragmentation measured.

[10] = system: mice; assay: Histopathological analysis of internal organs after xenograft treatment; format: in vivo, nude mice; conditions: radiation + W-188 200 mg/kg; thirty days after treatment
Protocol: Thirty days after treatment, three mice that were given radiation+W-188 200 mg/kg (the optimal treatment in this experiment) were sacrificed and internal organs removed and processed for histopathological analysis by a board-certified pathologist at a commercial lab.

[11] = system: HL-60 cells; assay: Subcellular distribution of W-188 in HL-60 cells (absorbance at 380 nm); format: in vitro ADME, human
Protocol: A method to measure the subcellular localization of this compound was developed by the inventors of the present invention. Because of its distinctive absorbance spectrum, W-188 can be detected in cell and tissue extracts by measuring absorbance at 380 nm, and quantitated relative to a standard curve constructed with known amounts of W-188. HL-60 and PW cells containing vector control or overexpressing Bcl-2 were incubated with W-188 followed by cell lysis and isolation of nuclei, mitochondria, and cytotol by differential centrifugation.
Furthermore, it can be seen that nuclei and mitochondria from cells overexpressing Bcl-2 accumulated higher levels of W-188 than the vector control cells. These findings are consistent with the hypothesis that W-188 may counteract the protective effects of Bcl-2 mediated at both the mitochondria as well as the nucleus.

CCC1=C(C)C(/C=C2\NC(=O)C(C)=C2CC)=NC/1=C\c1[nH]c(/C=C2\NC(=O)C(C)=C2CC)c(C)c1CC [W-188, etiobiliverdin-IV]
Toxicity of compound alone ([1]; 20 μg/ml, no Dox): completely nontoxic
Increase of cytotoxicity mediated by Dox ([1]; compound 20 μg/ml + Dox, FIG. 6): over two fold
Effect on tumor growth ([2]; W-188 200 mg/kg alone): no significant effect
Effect on tumor growth ([2]; W-188 400 mg/kg alone, p=0.005): significantly inhibited tumor growth
Effect on tumor growth ([2]; γ-radiation + W-188 200 mg/kg, p=0.006): even greater inhibition of tumor growth compared to radiation alone
Activation of AP24 (in words) ([3]; HL-60-Bcl-2 and PW-Bcl-2 exposed to apoptosis inducers): did not activate AP24 unless they were also treated with W-188
AP24 Activity (AAPVase, nmol/mg/hr) ([3]; HL-60 Bcl-2): 124 nmol/mg/h
AP24 Activity (AAPVase, nmol/mg/hr) ([3]; PW Bcl-2): 129 nmol/mg/h
Radiation-induced DNA fragmentation [4]: underwent DNA fragmentation at levels equal to or exceeding that of LY-as treated with radiation
Etoposide or TNF-induced DNA fragmentation after HS treatment ([5]; HS 42° C. 30 min, recovery 3 hr, 3 hr assay, FIG. 7): levels of etoposide or TNF-induced DNA fragmentation comparable to that seen in normal U937 cells
Toxicity of compound alone ([5]; W-188 alone): nontoxic
Sensitization to cell death mediated by etoposide and chlorambucil [6]: sensitized HL-60-Bcl-2 and LY-ar cells to cell death mediated by etoposide and chlorambucil
Expression of Bcl-2 protein [7]: did not downregulate the expression of Bcl-2 protein
Effect on tumor growth ([8]; W-188 100 mg/kg + Dox 5.0 mg/kg): synergistically inhibited tumor growth
Tumor size relative to vehicle control ([8]; W-188 100 mg/kg + Dox 5.0 mg/kg, day 12, p=0.0005): only half the size of the vehicle control
Effect on tumor growth ([8]; W-188 100 mg/kg alone, data not shown): no effect on tumor growth
Reversal of bFGF-induced resistance to etoposide or TNF-induced DNA fragmentation [9]: completely reversed resistance to apoptosis
Histopathology of heart, lung, liver, spleen, kidney, stomach, intestine [10]: All tissues examined were found to be normal
W-188 (μg/mg protein), Cytosol ([11]; HL-60 Bcl-2): 0.25 μg/mg protein
W-188 (μg/mg protein), Mitochondria ([11]; HL-60 Bcl-2): 10.0 μg/mg protein
W-188 (μg/mg protein), Nuclei ([11]; HL-60 Bcl-2): 186 μg/mg protein
W-188 (μg/mg protein), Cytosol ([11]; HL-60 neo): 0 μg/mg protein
W-188 (μg/mg protein), Mitochondria ([11]; HL-60 neo): 3.3 μg/mg protein
W-188 (μg/mg protein), Nuclei ([11]; HL-60 neo): 100 μg/mg protein
